Measured values from US7943646B2, “Benzamidine derivative, process for the preparation thereof and pharmaceutical composition comprising same” (Dong Wha Pharmaceutical Co., Ltd., priority 2006, dated 2011).

Each compound was assayed on osteoclast differentiation (assay: Inhibitory effect on osteoclast differentiation, co-culture of bone marrow cells and osteoblast, TRAP staining). Conditions: 1 μm; 7 days co-culture; TRAP-positive osteoclasts with 3 or more nuclei, relative to negative controls.
Type: cell-based, mouse
Protocol: The effect of the benzamidine derivative of the present invention on osteoclast formation and differentiation process was evaluated via co-culture with an osteoblast.
Tibia was aseptically ectomized from male 6 to 8-week-old ddY mice to harvest bone marrow cells by using a syringe (21G, Korea Green Cross). The bone marrow cells were suspended in 5 mL of an α-MEM medium (Gibco BRL Co., added with sodium bicarbonate (2.0 g/L), streptomycin (100 mg/L) and penicillin ([…]), filtered and then sterilized). The harvested cells were centrifuged at 600×g for 5 mins to collect the whole quantity. To remove the red blood cells in the bone marrow cells, 3 mL of Tris HCl (0.83% NH4Cl, pH 7.5) was added and well mixed. After centrifuging above cells, the numbers of the eukaryotic cells in the harvested bone marrow cells were counted and then immediately used for a co-culture system.
The progenitor bone and the parietal bone were aseptically ectomized from 1 to 2-day-old neonate ICR mice, washed with a phosphate butter solution (PBS) and treated with a mixed enzyme solution (of 0.2% collagenase and 0.1% dispase) sequentially (10, 10, 10, 20, 20 and 20 min), and then 3 to 6 groups of the cells which comprise lot of cells having the characteristics of the osteoblast were intensively collected and washed with a medium (a serum-free α-MEM). The washed cells were cultured in the α-MEM medium containing 10% FBS for 2 to 3 days. After subculturing, the collected cells were used for this experiment, and diluted to a concentration of 1×10^6 cells/mL for storage at −70[…].
The benzamidine derivative of the present invention was dissolved in a sterile distilled water or ethanol to dilute to a desired concentration. The final volume of the sample added to the cell culture medium was set at a ratio of 1:1000.
The bone marrow cells prepared in the above 1-1 and the osteoblast were co-cultured for osteoclast differentiation. Both the bone marrow cells (25,000 cells/cm^2) and the osteoblast (10,000 cells/cm^2) were plated in a 96-well plate using α-MEM medium containing FBS, and then cultured with the samples to be tested for 7 days. Differentiation factors, such as dexamethasone (10^−7 M) and vitamin D3 (10^−8 M), were also co-added to the medium from the first day of cultivation. The medium was changed with a fresh media containing a mixture of the samples and the differentiation factors every 2 to 3 days.
TRAP was used as a marker to measure the matured osteoclast in consideration of its characteristics showing a positive reaction to a TRAP staining solution. The TRAP staining solution was prepared in such the manner that 5 mg of naphtol AS-MS phosphate (sigma N-4875) as a substrate, and 25 mg of a coloring agent (Fast Red Violet LB salt) were dissolved in N,N-dimethylformamide (about 0.5 mL). 50 ml of a 0.1 N NaHCO3 buffer solution containing 50 mM tartaric acid (pH 5.0) was added thereto, and the mixture was stored at a refrigerator prior to use as a staining solution.
After culturing the cells for 7 days, the medium was removed from the wells, the cells were once washed with PBS, and then fixed with PBS containing 10% formalin for 2 to 5 min. The cells were fixed again in a mixed solution of ethanol and acetone (1/1) for about 1 min, and dried off. The cells were further treated by the TRAP staining solution for 15 mins and washed with water and dried off. The osteoclasts with 3 or more nuclei showing a TRAP-positive reaction were counted under a microscopic examination. Each of tests was confirmed over at least three times. The inhibitory effect on osteoclast differentiation of each experimental group, relative to negative controls, was expressed as a percentage (%).

Compound	inhibitory effect on osteoclast differentiation(%)
N-hydroxy-(5-{4-[5-(2-isobutyrylamino-ethyl)-2-methyl-thiazol-4-yl]-phenoxy}-pentyloxy)-benzamidine [Example 65]	29
CNC(=O)c1sc(C)nc1-c1ccc(OCCCCCOc2ccc(C(=N)NO)cc2)cc1 [Example 69]	90.3

Same assay, conditions: Mus musculus, Osteoclast, 168 h, read-out: inhibitory effect on osteoclast differentiation(%)

Compound	inhibition at 1 µM [%]
N=C(NO)c1ccc(OCCCCCOc2ccc(-c3nc(N)sc3CCN3CCOCC3)cc2)cc1 [Example 16, N-hydroxy-4-(5-{4-[2-amino-5-(2-morpholin-4-yl-ethyl)-thiazol-4-yl]-phenoxy}-pentyloxy)-benzamidine]	51
Cc1nc(-c2ccc(OCCCCCOc3ccc(C(=N)NO)cc3)cc2)c(CCN2CC(C)OC(C)C2)s1 (centres unmarked) [Example 14, N-hydroxy-4-[5-(4-{5-[2-(2,6-dimethyl-morpholin-4-yl)-ethyl]-2-methyl-thiazol-4-yl}-phenoxy)-pentyloxy]-benzamidine]	100
Cc1nc(-c2ccc(OCCCCCOc3ccc(C(=N)NO)cc3)cc2)c(CCn2ccnc2)s1 [Example 9, N-hydroxy-4-(5-{4-[5-(2-imidazol-1-yl-ethyl)-2-methyl-thiazol-4-yl]-phenoxy}-pentyloxy)-benzamidine]	91.7
N=C(NO)c1ccc(OCCCCCOc2ccc(-c3nc(-c4cccnc4)sc3CCn3ccnc3)cc2)cc1 [Example 26, N-hydroxy-4-(5-{4-[5-(2-imidazol-1-yl-ethyl)-2-pyridine-3-yl-thiazol-4-yl]-phenoxy}-pentyloxy)-benzamidine]	24
Cc1nc(-c2ccc(OCCCCCOc3ccc(C(=N)NO)cc3)cc2)c(CCNCCN2CCOCC2)s1 [Example 4, N-hydroxy-4-[5-(4-{2-methyl-5-[2-(2-morpholin-4-yl-ethylamino)-ethyl]-thiazol-4-yl}-phenoxy)-pentyloxy]-benzamidine]	72.8
CC(C)c1nc(-c2ccc(OCCCCCOc3ccc(C(=N)NO)cc3)cc2)c(CCN2CCSCC2)s1 [Example 32, N-hydroxy-4-(5-{4-[2-isopropyl-5-(2-thiomorpholin-4-yl-ethyl)-thiazol-4-yl]-phenoxy}-pentyloxy)-benzamidine]	97
Cc1nc(-c2ccc(OCCCCCOc3ccc(C(=N)NO)cc3)cc2)c(CCNC(C)C)s1 [Example 6, N-hydroxy-4-(5-{4-[5-(2-isopropylamino-ethyl)-2-methyl-thiazol-4-yl]-phenoxy}-pentyloxy)-benzamidine]	59
Cc1nc(-c2ccc(OCCCCCOc3ccc(C(=N)NO)cc3)cc2)c(CCNCCN(C)C)s1 [Example 17, N-hydroxy-4-[5-(4-{5-[2-(2-dimethylamino-ethylamino)-ethyl]-2-methyl-thiazol-4-yl}-phenoxy)-pentyloxy]-benzamidine]	40
Cc1nc(-c2ccc(OCCCCCOc3ccc(C(=N)NO)cc3)cc2)c(CCN(CCO)CCO)s1 [Example 12, N-hydroxy-4-{5-[4-(5-{2-[bis-(2-hydroxy-ethyl)-amino]-ethyl)-2-methyl-thiazol-4-yl)-phenoxy]-pentyloxy}-benzamidine]	56
CN1CCN(CCc2sc(C3CCCCC3)nc2-c2ccc(OCCCCCOc3ccc(C(=N)NO)cc3)cc2)CC1 [Example 34, N-hydroxy-4-[5-(4-{2-cyclohexyl-5-[2-(4-methyl-piperazin-1-yl)-ethyl]-thiazol-4-yl}-phenoxy)-pentyloxy]-benzamidine]	100
CC(C)c1nc(-c2ccc(OCCCCCOc3ccc(C(=N)NO)cc3)cc2)c(CCNCCCn2ccnc2)s1 [Example 31, N-hydroxy-4-[5-(4-{5-[2-(3-imidazol-1-yl-propylamino)-ethyl]-2-isopropyl-thiazol-4-yl}-phenoxy)-pentyloxy]-benzamidine]	97
CC(C)c1nc(-c2ccc(OCCCCCOc3ccc(C(=N)NO)cc3)cc2)c(CCn2ccnc2)s1 [Example 29, N-hydroxy-4-(5-{4-[5-(2-imidazol-1-yl-ethyl)-2-isopropyl-thiazol-4-yl]-phenoxy}-pentyloxy)-benzamidine]	85

Same assay, conditions: Mus musculus, Osteoclast, 168 h; 1 μm; 7 days co-culture; TRAP-positive osteoclasts with 3 or more nuclei, relative to negative controls; read-out: inhibitory effect on osteoclast differentiation(%)

Compound	inhibition at 1 µM [%]
CC(C)c1nc(-c2ccc(OCCCCCOc3ccc(C(=N)NO)cc3)cc2)c(CCN2CCN(C)CC2)s1 [Example 28, N-hydroxy-4-[5-(4-{2-isopropyl-5-[2-(4-methyl-piperazin-1-yl)-ethyl]-thiazol-4-yl}-phenoxy)-pentyloxy]-benzamidine]	90
CN(C)c1nc(-c2ccc(OCCCCCOc3ccc(C(=N)NO)cc3)cc2)c(CCN2CCSCC2)s1 [Example 54, N-hydroxy-4-(5-{4-[2-dimethylamino-5-(2-thiomorpholin-4-yl-ethyl)-thiazol-4-yl]-phenoxy}-pentyloxy)-benzamidine]	88
Cc1nc(-c2ccc(OCCCCCOc3ccc(C(=N)NO)cc3)cc2)c(CCNC2CCCCC2)s1 [Example 10, N-hydroxy-4-(5-{4-[5-(2-cyclohexylamino-ethyl)-2-methyl-thiazol-4-yl]-phenoxy}-pentyloxy)-benzamidine]	55
CN1CCN(CCc2sc(N3CCOCC3)nc2-c2ccc(OCCCCCOc3ccc(C(=N)NO)cc3)cc2)CC1 [Example 61, N-hydroxy-4-[5-(4-{5-[2-(4-methyl-piperazin-1-yl)-ethyl]-2-morpholin-4-yl-thiazol-4-yl}-phenoxy)-pentyloxy]-benzamidine]	76
CNc1nc(-c2ccc(OCCCCCOc3ccc(C(=N)NO)cc3)cc2)c(CCN2CCSCC2)s1 [Example 49, N-hydroxy-4-(5-{4-[2-methylamino-5-(2-thiomorpholin-4-yl-ethyl)-thiazol-4-yl]-phenoxy}-pentyloxy)-benzamidine]	84
Cc1nc(-c2ccc(OCCCCCOc3ccc(C(=N)NO)cc3)cc2)c(CCNCC(C)C)s1 [Example 22, N-hydroxy-4-(5-{4-[5-(2-isobutylamino-ethyl)-2-methyl-thiazol-4-yl]-phenoxy}-pentyloxy)-benzamidine]	61
Cc1nc(-c2ccc(OCCCCCOc3ccc(C(=N)NO)cc3)cc2)c(CCN(C(C)C)C(C)C)s1 [Example 13, N-hydroxy-4-(5-{4-[5-(2-diisopropylamino-ethyl)-2-methyl-thiazol-4-yl]-phenoxy}-pentyloxy)-benzamidine]	43
Cc1nc(-c2ccc(OCCCCCOc3ccc(C(=N)NO)cc3)cc2)c(C(=O)NCCCn2ccnc2)s1 [Example 71, N-hydroxy-4-{5-[4-(5-{3-imidazol-1-yl-propylcarbamoyl}-2-methyl-thiazol-4-yl)-phenoxy]-pentyloxy}-benzamidine]	90.4
CC(C)C(=O)N(C)c1nc(-c2ccc(OCCCCCOc3ccc(C(=N)NO)cc3)cc2)c(CCN2CCOCC2)s1 [Example 55, N-hydroxy-4-(5-{4-[2-(isobutyryl-methyl-amino)-5-(2-morpholin-4-yl-ethyl)-thiazol-4-yl]-phenoxy}-pentyloxy)-benzamidine]	69
Cc1nc(-c2ccc(OCCCCCOc3ccc(C(=N)NO)cc3)cc2)c(CCNCCCOC(C)C)s1 [Example 7, N-hydroxy-4-[5-(4-{5-[2-(3-isopropoxy-propylamino)-ethyl]-2-methyl-thiazol-4-yl}-phenoxy)-pentyloxy]-benzamidine]	48
N=C(NO)c1ccc(OCCCCCOc2ccc(-c3nc(N4CCOCC4)sc3CCN3CCSCC3)cc2)cc1 [Example 60, N-hydroxy-4-(5-{4-[2-morpholin-4-yl-5-(2-thiomorpholin-4-yl-ethyl)-thiazol-4-yl]-phenoxy}-pentyloxy)-benzamidine]	88
N=C(NO)c1ccc(OCCCCCOc2ccc(-c3nc(-c4cccnc4)sc3CCN3CCOCC3)cc2)cc1 [Example 23, N-hydroxy-4-(5-{4-[5-(2-morpholin-4-yl-ethyl)-2-pyridine-3-yl-thiazol-4-yl]-phenoxy}-pentyloxy)-benzamidine]	91
